# Data published in article PMC9138505, “Small Molecule 20S Proteasome Enhancer Regulates MYC Protein Stability and Exhibits Antitumor Activity in Multiple Myeloma” (Biomedicines, 2022).
# Several values for one entry are separate records, joined by “and”; a condition that tells them apart may be missing. Identical values can stand only once.
# Assays:
# c-MYC [1] = assay: c-MYC degradation ELISA in L363 cells; type: cell-based, human; conditions: various concentrations, 4 h
# Protocol: (§1) ELISA: c-MYC degradation in L363 and H929 cells. L363 cells were grown in T-25 flasks in RPMI-1640 medium supplemented with 15% heat-inactivated fetal bovine serum (FBS) and 1% penicillin/streptomycin at 37 °C and 5% CO2. H929 cells were grown in T-25 flasks in RPMI-1640 medium supplemented with 10% FBS, 0.05 mM 2-mercaptoethanol, and 1% penicillin/streptomycin. Cells were treated with DMSO, TCH-165, or bortezomib (BTZ) at the indicated concentrations for 4 h (0.1% final DMSO concentration). Following the 4-hour treatment, cells were pelleted, washed with chilled PBS buffer, and resuspended in chilled lysis buffer (10 mM Tris, 100 mM NaCl, 1 mM EDTA, 1 mM EGTA, 1 mM NaF, 20 mM Na4P2O7, 2 mM Na3VO4, 1% Triton X-100, 10% glycerol, 0.1% SDS, and 0.5% deoxycholate; pH 7.4) supplemented with Complete Mini Protease Inhibitor Cocktail (Sigma Aldrich). The lysate was clarified by centrifugation at 5000 rpm (4 °C) for 15 min. Total protein of the lysate was quantified by bicinchoninic acid assay (BCA assay, Thermofisher Scientific; Waltham, MA, USA). and normalized to 1.5 mg/mL total protein. The supplied protocol for the human c-MYC (Total) ELISA Kit (Invitrogen; Waltham, MA, USA) was used to determine the total c-MYC concentration of the lysates. Prior to loading lysate into ELISA plate wells, lysate (5 µL) was diluted into 45 µL of supplied standard diluent buffer.
# [2] = test system: RPMI-8226, L363 and H929 cells; assay: Assessment of apoptosis, Caspase-Glo 3/7 assay; type: cell-based, human; conditions: all three MM cell lines, 24 h (Figure S1)
# Protocol: Apoptosis was evaluated with the Caspase-Glo 3/7 assay kit (Promega; Madison, WI, USA) according to the manufacturer’s instructions. […] Staurosporine (81590, Cayman), an apoptosis inducer, was used as a positive control at 10 μM concentration for 3 h of incubation. After the incubation, the caspase reagent was added to the cells and incubated at 37 °C for 30 min. The luminescent signal was detected by the EnVision plate reader (PerkinElmer; Waltham, MA, USA) and the data were analyzed by Graph Pad Prism (9.2.0, Graph Pad Software Inc., San Diego, CA, USA).
# 26S proteasome = test system: 26S proteasome; design: method as in PMID 29897236; conditions: cited from earlier work
# [3] = test system: human constitutive 20S proteasome; design: method as in PMID 29897236; conditions: i.e., 1000%; cited from earlier work
# [4] = Tolerance in dogs (clinical observations, body weight, CBC, clinical chemistry); type: in vivo, beagle dogs; conditions: beagles
# Protocol: (§2) Adult beagle dogs (male, 12 months of age, n = 3), weighing approximately 10 kg, received a […] of the test compound at 500 mg bid delivered in capsule form. Blood (approximately 2.5 mL) was collected into lithium heparin tubes at 0, 1 h, 2 h, 4 h, 8 h, and 24 h post-day 1 and post-day 5 dose for PK assessment using mass spectrometry. Blood (approximately 2 mL) was also collected and divided into EDTA and standard clot tubes on day 6 post-dose for determination of CBC and clinical chemistry parameters, respectively, and analyzed at the Michigan State University Veterinary Diagnostic Laboratory. Clinical observations were conducted daily on non-dosing days and twice on dosing days.
# [5] = test system: human constitutive 20S proteasome; assay: Proteasome activity in purified protein assay (fluorogenic AMC peptide substrates); type: biochemical
# Protocol: The proteolytic activity of the 20S proteasome can be monitored in vitro by measuring the cleavage of fluorogenic peptide substrates for the different catalytic sites as an increase in 7-amino-4-methylcoumarin (AMC) fluorescence over time, as previously reported. Purified human 20S proteasome was pre-treated with a concentration range of TCH-165 or DMSO (vehicle control) for 15 min at 37 °C, on a black flat/clear bottom 96-well plate containing 1 nM of human constitutive 20S proteasome in 50 mM Tris-HCl pH 7.5. Fluorogenic substrates, Suc-LLVY-AMC (CT-L activity, 10 μM), Z-LLE-AMC (Casp-L activity, 10 μM), Boc-LRR-AMC (Tryp-L activity, 20 μM), were then added and the enzymatic activity measured at 37 °C on a SpectraMax M5e spectrometer by measuring an increase in the fluorescence unit per minute for 1 h at 380–460 nm. The release of AMC was monitored as fluorescence over time for 1 h and the resulting 20S activity changes were determined by comparing to the untreated 20S and calculating the fold-increase in activity over vehicle control for each analog at a given concentration.
# [6] = Pharmacokinetic assessment in dogs; type: in vivo; conditions: male, beagle, dog
# Protocol: as §2
# c-MYC [7] = assay: c-MYC degradation ELISA in H929 cells; type: cell-based, human; conditions: various concentrations, 4 h
# Protocol: as §1
# NCI-H929 cells = assay: Cell viability, CellTiter-Glo, 72 h; type: cell-based; conditions: Homo sapiens; NCI-H929, 72 h; CI by 3-parameter curve
# Protocol: (§3) RPMI-8226, L363 and NCI-H929 cells were obtained from ATCC (Manassas, VA, USA) and were maintained in RPMI medium supplemented with 10% fetal bovine serum, and 100 U/mL penicillin/streptomycin, at 37 °C with 5% CO2. DMSO was used as the compound vehicle or vehicle control at a 0.1% final concentration for both cell culture and enzyme assay.
# (§4) Error bars represent SD for triplicate wells.
# L363 cells = assay: Cell viability, CellTiter-Glo, 72 h; type: cell-based; conditions: Homo sapiens, L-363; L363, 72 h
# Protocol: as §3, §4
# RPMI-8226 cells = assay: Cell viability, CellTiter-Glo, 72 h; type: cell-based, human; conditions: RPMI-8226, 72 h
# Protocol: as §3, §4
# [8] = test system: proteasome, CT-L substrate Suc-LLVY-AMC, canine PBMC lysate; assay: Proteasome activity in canine PBMC lysate (target engagement); type: in vivo; conditions: treated canines, 1920 mg BID
# Protocol: Canine blood samples obtained in BD Vacutainer CPT mononuclear cell preparation tubes containing sodium citrate were used to isolate PBMCs. For PBMC isolation, sample tubes were inverted five times and equilibrated for the centrifuge with sterile PBS buffer. Tubes were centrifuged at 1800× g with the acceleration set at 5 and a break set to 0 at room temperature for 30 min. Half of the plasma layer was discarded. Using a sterile Pasteur pipette, the buffy coat was collected and put into a 15 mL conical tube and sterile PBS buffer was added to 10 mL. The conical tubes were centrifuged at 300× g for 10 min and the supernatant was removed. Cells were resuspended in 150 µL of lysis buffer (50 mM Tris-HCl, 2 mM Na2ATP, 5 mM MgCl2, 0.5 mM EDTA, 10% glycerol) and lysed by vortex. Samples were centrifuged for 20 min at 14,000× g. The total protein concentration of the supernatant was determined using bicinchoninic acid assay (BCA assay), and the samples were normalized to 1 mg/mL. Samples were diluted to 0.036 µg/µL in assay buffer (38 mM Tris, 100 mM NaCl, pH 7.8) and 140 µL of the diluted sample was added to three wells of a black, clear-bottom 96-well plate. Substrate stock solution (10 µL of 375 µM Suc-LLVY-AMC in assay buffer) was added to each well. Fluorescence was measured and kinetic readings were taken every 5 min at 37 °C, at 380/440 nm for 1 h.
# [9] = blood, dogs, 50 mg/kg bid oral capsule
structure (smiles),measurement,setting,value
CCOC(=O)[C@]1(c2ccccc2)N=C(c2ccc(OC)cc2)N(Cc2ccccc2)[C@@H]1c1ccc(NCc2ccccc2)cc1 [TCH-165],MYC clearance (percent MYC remaining),c-MYC [1],induced clearance of MYC
same,induction of apoptosis (caspase 3/7 activity),[2],induction of apoptosis
same,26S proteasome activity,26S proteasome,not affected
same,concentrations at which structured proteins targeted by the 26S-ubiquitin-dependent proteasome system were not affected,26S proteasome,< 30 µM
same,concentration at which disassembly of the 26S proteasome inhibited 26S-mediated degradation of ubiquitinylated substrates,"26S proteasome; various cell lines, including RPMI-8226",> 30 µM
same,enhancement of 20S-mediated proteolysis,[3],~10 fold
same,body weight change,"[4]; 50 mg/kg bid oral capsule, five consecutive days",< 1%
same,"clinical observations, body weight, complete blood counts and clinical chemistry panel compared to pre-dose status","[4]; 50 mg/kg bid oral capsule, five days",no significant changes
same,notable change in the clinical chemistry profile,[4]; day 5 of administration,increase in plasma iron concentrations
same,EC200 (concentration at which TCH-165 doubles 20S activity),"[5]; CT-L site (b-5), substrate Suc-LLVY-AMC",1.5 µM
same,Fold^M (maximum fold enhancement of 20S activity),"[5]; CT-L site, Suc-LLVY-AMC",810%
same,Fold^M (maximum fold enhancement of 20S activity),"[5]; Casp-L site, Z-LLE-AMC",1290%
same,Fold^M (maximum fold enhancement of 20S activity),"[5]; Tryp-L site, Boc-LRR-AMC",500%
same,Cmax,[6]; [9],1600 nM
same,Tmax,[6]; [9],24 h
same,Cmax,"[6]; plasma, dogs (n=3), means, 50 mg/kg bid oral",1570 nM
same,AUC,"[6]; plasma, dogs (n=3), means, 50 mg/kg bid oral, read-out: AUC (nM) (0-24 for dogs)",19.8 µM·h
same,MYC clearance (percent MYC remaining),c-MYC [7],induced clearance of MYC
same,CC50,NCI-H929 cells,4.3 µM
same,CC50,L363 cells,5 µM
same,CC50,RPMI-8226 cells; Homo sapiens,~1 µM
same,CC50,RPMI-8226 cells,0.9 µM
same,drug concentration by mass spectrometry,[8],1400 nM and 1100 nM
